# Experimental data: US20070060549A1, “COMBINATION THERAPIES EMPLOYING ACE INHIBITORS AND USES THEREOF FOR THE TREATMENT OF DIABETIC DISORDERS” (priority 2004, published 2007)
# How the values were obtained:
# rats [1] = experiment: 26-week oral toxicity in rats; format: in vivo; details: 26-week rat study
# Experimental: (§1) As a prelude to human clinical studies, the toxicology of P5P was assessed by conventional means using two animal species, rats and dogs. […] Long term studies, 13-week oral toxicity in dogs, and 26-week oral toxicity in rats, were completed.
# rat = experiment: Acute toxicity evaluation of P5P in the rat; format: in vivo; details: doses up to 5 g/kg
# Experimental: as §1
# patients [2] = experiment: Phase I multi-dose tolerance study of P5P; format: in vivo, human
# patients [3] = experiment: Phase I single dose tolerance study of P5P; format: in vivo, human
# Experimental: (§2) In a Phase I single dose tolerance study, conducted in accordance with generally accepted clinical practice standards, groups of six patients were tested at 15 mg/kg, 30 mg/kg, and 60 mg/kg (enteric coated tablets). […] Four subjects in the 60 mg/kg dose group reported a total of 10 adverse events including diarrhea, bradycardia, bubbly stomach, flatulence, and headaches that were mild in severity.
# rats [4] = experiment: 14-day oral administration of P5P to rats; format: in vivo, rat; details: orally 50 mg/kg for 14 days
# Experimental: as §1
# [5] = system: diabetic hypertensive patients; experiment: Phase II clinical study of P5P: glycated hemoglobin (HbA1c); format: in vivo, human; details: patients with clinically elevated HbA1c at start; 250, 500, 750 mg P5P two weeks each, then 4-week washout
# Experimental: In a phase II clinical study, conducted in accordance with generally accepted clinical practice standards, diabetic hypertensive patients were treated with P5P. Glucose control was determined by measuring glycated hemoglobin levels (HbA1c). Four weeks prior to treatment, patients ceased all antihypertensive therapy. Following the washout period, baseline HbA1c measurements were taken. Patients were than treated with 250 mg, 500 mg, and 750 mg of P5P for two weeks at each dosage. P5P treatment was then discontinued for 4 weeks. Following the washout period, HbA1c measurements were taken.
# [6] = Phase I pharmacokinetics of P5P; format: in vivo, human; details: Phase I dose levels; small numbers of subjects, large inter-subject variability
# Experimental: as §2
# dogs [7] = experiment: Acute toxicity evaluation of P5P in dogs; format: in vivo, dog; details: doses up to 100 mg/kg
# Experimental: as §1
# dogs [8] = experiment: 13-week oral toxicity in dogs; format: in vivo; details: 13-week dog study
# Experimental: as §1
# [9] = system: hypertensive patients with type 2 diabetes; details: 8 weeks
# Experimental: Summary of Study Design—The phase II study was a randomized, parallel group, cross-over, double-blinded to study medication, placebo-controlled comparison of P5P BID at total daily doses of 100, 300 or 1000 mg alone and in combination with 20 mg lisinopril given once daily (QD). In order to protect against antihypertensive and metabolic carry-over effects of lisinopril, 160 patients were randomized in 2 different treatment sequences. Patients randomized in the first treatment sequence received an 8-week treatment with lisinopril 20 mg and P5P (or placebo) and then an 8-week treatment with P5P alone (or placebo). […]
# Mean trough sitting and standing BP were measured at each visit. […]
# Ambulatory blood pressure (ABP) was measured using a SpaceLabs Medical ABPM Monitor Model 90207 (SpaceLabs Medical Inc., Redmond, Wash.). […] Following the initiation of two manual readings, a third manual reading was initiated and began the 24-hour monitoring period. […] A manual reading was initiated at the end of the 24-hour period to ensure that there was at least one data point in the last hour of the 24-hour period. Subjects were instructed to initiate a manual reading should they be late for their scheduled clinic appointment to ensure that a reading in the last hour of the 24-hour period was not missed. On completion of the readings, the ABPM device was removed from the subject. […]
Structure (SMILES),"findings of toxicological significance (rats [1]; any dose level (50, 100/175, 175/325 mg/kg))",findings in high dose group (rats [1]; high dose group),acute toxicity (rat),"tolerance (patients [2]; multi-dose 30 mg/kg, one patient withdrew due to vomiting and diarrhea)",tolerance (patients [2]; multi-dose 60 mg/kg),"adverse events (patients [3]; single dose 15 mg/kg, enteric coated tablets, six patients)","adverse events (patients [3]; single dose 30 mg/kg, enteric coated tablets, six patients)","subjects reporting adverse events (patients [3]; single dose 60 mg/kg, enteric coated tablets, six patients)","total adverse events (patients [3]; single dose 60 mg/kg, diarrhea, bradycardia, bubbly stomach, flatulence, headaches, mild in severity)",signs of toxicity (rats [4]),reduction in HbA1c levels as compared to baseline [5] [%],dose-linearity of pharmacokinetics [6],acute toxicity (dogs [7]),drug related toxicities (dogs [8]; 10 and 25 mg/kg),"recovery (dogs [8]; 50-60 mg/kg group, recovery phase)","findings in high dose group (dogs [8]; 50-60 mg/kg, all other findings mild to moderate)","reduction in MDASBP from baseline ([9]; lisinopril 20 mg/dose and placebo, p=0.002) [mmHg]","reduction in MDADBP from baseline ([9]; lisinopril 20 mg/dose plus placebo, p=0.005) [mmHg]"
"Cc1ncc(COP(=O)(O)O)c(C=O)c1O [P5P, pyridoxal-5′-phosphate]",No findings of toxicological significance,reversible reduction in body weight gain and increased incidence of stomach microulcers,no significant toxicity,five of six patients treated with 30 mg/kg P5P tolerated the medication well,all 6 treated patients experiencing a variety of mild gastrointestinal symptoms,No adverse events were reported,One subject in the 30 mg/kg dose group experienced events of dizziness and sleepiness,Four,10,no signs of toxicity,5.4,did not demonstrate dose-linearity,no significant toxicity,no drug related toxicities were observed,recovered almost completely,anorexia and body weight loss,–,–
NCCCC[C@H](N[C@@H](CCc1ccccc1)C(=O)O)C(=O)N1CCC[C@H]1C(=O)O [lisinopril],–,–,–,–,–,–,–,–,–,–,–,–,–,–,–,–,7.5,4.1
